Here are results for 3 compounds from paper PMC6969910, “Repurposing Dihydropyridines for Treatment of Helicobacter pylori Infection” (Pharmaceutics, 2019).

Series [1] addresses T1, H. pylori HsrA response regulator (Helicobacter pylori, UniProt O25684). It counts as biochemical. To be noted: EMSA, 6 µM HsrA, 120 ng target promoter, 0.1 to 2 mM DHP. Here is the method: The in vitro biological activity of the H. pylori HsrA response regulator and its potential inhibition by DHP drugs were assessed by electrophoretic mobility shift assay (EMSA) as previously described. Briefly, 120 ng of target DNA (promoter region of the H. pylori porGDAB operon) was mixed with 6 µM of recombinant HsrA [17] in the presence of increasing concentrations (0.1 to 2 mM) of selected DHP drugs. Mixtures of DNA and protein in a 20 μL reaction volume containing 10 mM bis-Tris (pH 7.5), 40 mM KCl, 100 mg/L BSA, 1 mM DTT and 5% glycerol were incubated at room temperature for 20 min and then separated by 6% native polyacrylamide gel electrophoresis. A 150 bp fragment of the Anabaena sp. PCC 7120 gene pkn22 was included as non-specific competitor DNA in all assays. EMSA gels were stained with SYBR Safe® (Thermo Fisher Scientific, Bothell, WA, USA) and analyzed using the Bio-Rad Gel Doc 2000 imaging system.

Series [2] deals with T1, H. pylori HsrA response regulator. Put plainly: biochemical. Format: binding. To be noted: for n (binding stoichiometry): absolute error 0.06; for ΔG: absolute error 0.2 kcal/mol; for ΔH: absolute error 0.4 kcal/mol. On the procedure:
Thermodynamic parameters of the molecular interaction between HsrA and its DHP-class inhibitors were analyzed by isothermal titration calorimetry (ITC) using an AutoiTC200 calorimeter (MicroCal, Malvern Instruments, Malvern, Worcestershire, UK). A solution of 20 µM of the protein in 50 mM Tris-HCl [pH 8], 150 mM NaCl, 10% glycerol, 1% DMSO was titrated with 200 µM of the corresponding ligand (DHP) dissolved in the same buffer at 25 °C. A total of 19 injections of 2 μL was added sequentially to the sample cell after 150 s spacing to ensure that the thermal power returned to the baseline before the next injection. Dissociation constants and binding enthalpies were calculated by non-linear least squares regression data analysis using the software package Origin 7.0 (OriginLab, Northampton, MA, USA).

Series [3] concerns H. pylori ATCC 700392. Put plainly: MIC/MBC by broth microdilution, strain ATCC 700392. Format: cell-based. To be noted: Helicobacter pylori, ATCC700392; for MBC: ATCC 700392; for MIC: ATCC 700392, 72 h.
Series [4] has as its system H. pylori ATCC 43504 (metronidazole-resistant). Put plainly: MIC/MBC by broth microdilution, strain ATCC 43504 (MTZ-R). To be noted: Helicobacter pylori; for MBC: ATCC43504; for MIC: ATCC43504, 72 h. Format: cell-based.
Series [5] has as its system H. pylori ATCC 700684 (clarithromycin resistant). The series is described as follows: MIC/MBC by broth microdilution, strain ATCC 700684 (CLR-R). It counts as cell-based. Conditions: Helicobacter pylori; for MBC: ATCC700684; for MIC: ATCC700684, 72 h.
For series [6], the system named is H. pylori ATCC 700684 (CLR-R). Put plainly: Checkerboard assay with clarithromycin, strain ATCC 700684. It counts as cell-based, Helicobacter pylori. Here is the method:
(§1) Antibacterial synergies of selected DHPs in combination with first-line anti-H. pylori antibiotics were tested by the checkerboard assay. Using 96-well flat-bottom microtiter plates, we assayed the antibacterial effect of the interaction of a range of 2-fold dilutions of clarithromycin or metronidazole with a range of 2-fold dilutions of each selected DHP. Serial dilutions of both antimicrobials (antibiotic and DHP) were firstly prepared using two different sterile microtiter plates, one compound was diluted along the rows in a first plate, and the other compound was diluted along the columns of a second plate. Then, both gradients were mixed in a third microtiter plate and inoculated with a freshly prepared bacterial suspension of H. pylori at 2 × 10^6 CFU/mL in BHI+FBS. Plates were incubated for 48 h at 37 °C under microaerobic conditions. […] The interaction between drugs was determined by calculating the fractional inhibitory concentration index (FICI) as: FICA (MICA in the presence of B/MICA alone) + FICB (MICB in the presence of A/MICB alone).

The subject of series [7] is Mouse. Conditions: cited from earlier work.
Series [8] relates to Mouse. Put plainly: Mouse oral median lethal dose (LD50). Format: in vivo. Conditions: oral dose 100 mg/kg/day versus mouse oral LD50.
Series [9] has as its system H. pylori ATCC 43504 (MTZ-R). Put plainly: Checkerboard assay with metronidazole, strain ATCC 43504. It counts as cell-based, Helicobacter pylori. On the procedure: as §1
The subject of series [10] is H. pylori strain PMSS1. The series is described as follows: H. pylori gastric colonization in C57BL/6 mice (bacterial counts and qPCR). Format: in vivo, Helicobacter pylori (in C57BL/6 mice). Conditions: PMSS1, oral 100 mg/kg/day marketed formulation + omeprazole 140 mg/kg/day, 7 days, vs infected non-treated.
The mark [11] stands for this setting: ITC, 25 °C, pH 8, relative error 40%, read-out: Kd.

Values after ≈ are worked out from the molar mass of the structure shown. Where two headings read alike, the source gives them in different places.

T1 sequence (O25684 entry or part of it): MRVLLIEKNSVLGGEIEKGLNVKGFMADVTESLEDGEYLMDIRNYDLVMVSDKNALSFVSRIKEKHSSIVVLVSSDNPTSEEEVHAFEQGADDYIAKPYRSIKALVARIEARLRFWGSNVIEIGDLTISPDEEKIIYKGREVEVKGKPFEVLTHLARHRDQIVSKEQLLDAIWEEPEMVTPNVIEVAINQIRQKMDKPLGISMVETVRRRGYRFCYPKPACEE

For `COC(=O)C1=C(C)NC(C)=C(C(=O)OC(C)(C)CN(C)CCC(c2ccccc2)c2ccccc2)C1c1cccc([N+](=O)[O-])c1` (stereo not shown) [Lercanidipine], the “Inhibition of the DNA binding activity of HsrA” value (“Inhibition” for short) in [1] is given as “noticeably inhibited”. Also, in series [2] (ITC, 25 °C, pH 8), the “n (binding stoichiometry)” value was determined as 0.81, the ΔG is -6.4 kcal/mol and the ΔH is -4.8 kcal/mol. The Kd in series [2] (setting [11]) was found to be 20 µM. In series [3], the MBC stood at 8 µg/mL (≈ 13.1 µM) and the MIC was found to be 8 µg/mL (≈ 13.1 µM). In [4], the MBC was 64 µg/mL (≈ 105 µM) and the lowest concentration to inhibit growth (MIC) was 32 µg/mL (≈ 52.3 µM). In [5], this compound displayed an MBC of 8 µg/mL (≈ 13.1 µM) and an MIC of 8 µg/mL (≈ 13.1 µM). For the same compound, in series [6] (clarithromycin in combination with DHP, ATCC 700684 (CLR-R)), the FICantibiotic turned out to be 0.0625. The “Reduction of the MIC value of clarithromycin” value in [6] (in combination with DHP, ATCC 700684) is “up to 16 times”. Further, the “Mouse LD50 (mg/kg, oral)” value in series [7] is 622 mg/kg.
Take `COCCOC(=O)C1=C(C)NC(C)=C(C(=O)OC(C)C)C1c1cccc([N+](=O)[O-])c1` (stereo not shown) [Nimodipine]: the “Treatment dose, times lower than LD50” value in series [8] is listed as 9.4 times. In addition, the “Inhibition” value in series [1] was “noticeably inhibited”. Also, in series [2] (ITC, 25 °C, pH 8), the “n (binding stoichiometry)” value turned out to be 0.71, the ΔG was -7.3 kcal/mol and the ΔH was -2.1 kcal/mol. Further, the Kd in series [2] (setting [11]) was determined as 4.1 µM. Moreover, in series [3], the MBC amounted to 8 µg/mL (≈ 19.1 µM) and the MIC was 8 µg/mL (≈ 19.1 µM). In addition, in [4], the MBC came out at 32 µg/mL (≈ 76.5 µM) and the MIC came out at 16 µg/mL (≈ 38.2 µM). In addition, in series [5], the MBC was determined as 4 µg/mL (≈ 9.56 µM) and the lowest concentration to inhibit growth (MIC) was 4 µg/mL (≈ 9.56 µM). Also, the “Reduction of the MIC value of metronidazole” value in [9] (in combination with DHP, ATCC 43504) is listed as “up to 8 times”. Moreover, in series [9] (metronidazole in combination with DHP, ATCC 43504 (MTZ-R)), the FICantibiotic stood at 0.125. In addition, in series [10], the “H. pylori gastric colonization, bacterial counts (CFU/mg of stomach)” value is “significantly reduced” and the “H. pylori gastric colonization, qPCR (bacteria per 10,000 murine cells)” value is on record as “significantly reduced”. For the same compound, the “Mouse LD50 (mg/kg, oral)” value in [7] (ref PubChem) is listed as 940 mg/kg.
On to `CCOC(=O)C1=C(C)NC(C)=C(C(=O)OC)C1c1cccc([N+](=O)[O-])c1` (stereo not shown) [Nitrendipine], for which the “Treatment dose, times lower than LD50” value in [8] is on record as 25.4 times. Besides, the “Inhibition” value in series [1] is given as “noticeably inhibited”. The compound also yielded a Kd in [2] of 9 µM. Further, in series [2] (ITC, 25 °C, pH 8), the “n (binding stoichiometry)” value is listed as 0.75, the ΔG was -6.9 kcal/mol and the ΔH was -2.6 kcal/mol. In [3], this compound gave an MBC of 8 µg/mL (≈ 22.2 µM) and an MIC of 8 µg/mL (≈ 22.2 µM). In series [4], this compound gave an MBC of 16 µg/mL (≈ 44.4 µM) and an MIC of 16 µg/mL (≈ 44.4 µM). In [5], this compound registered an MBC of 8 µg/mL (≈ 22.2 µM) and an MIC of 8 µg/mL (≈ 22.2 µM). Moreover, in [10], the “H. pylori gastric colonization, bacterial counts (CFU/mg of stomach)” value was “significantly reduced” and the “H. pylori gastric colonization, qPCR (bacteria per 10,000 murine cells)” value is recorded as “significantly reduced”. Besides, in series [7] (ref PubChem), the “Mouse LD50 (mg/kg, oral)” value was 2540 mg/kg.
